{"source": "patent US12411143B2", "about": "“CD146 and uses thereof as a biomarker and as a therapeutic target in the diagnosis and treatment of fibrosis” (ASSISTANCE PUBLIQUE HÔPITAUX DE MARSEILLE, priority 2018, dated 2025)", "type_in_all_cases": "cell-based", "key": {"[1]": {"tested_on": "Human cardiac fibroblasts (HCFs)", "assay": "Myofibroblast marker expression in human cardiac fibroblasts (RT-PCR, western blot, immunofluorescence)", "experimental": "Human cardiac fibroblasts (HCFs) (PromoCell) are grown in Fibroblast Growth Medium 3 Supplement Pack (PromoCell) in an environment at 37° C. with controlled atmosphere. The HCFs are grown between passages 3 and 7.\nTo perform the stimulations, the fibroblasts are seeded at a density of 30 000 cells/cm^2 in complete culture medium. After 24 hours of adhesion, the cell culture medium is replaced with medium not containing growth factor (minimal medium) for 4 hours.\nTotal mRNA is extracted using a purification kit (RNeasy Mini, Qiagen) then eluted in 30 μL of RNase-free water. The amount of RNA is measured at 260 nm using a spectrophotometer (NanoDrop). The RNA is then converted to cDNA using 200 ng of RNA and according to the same protocol as the tissue RNA. The gene expression study is performed by real-time PCR from 10 ng of cDNA (Table 4).\nThe cells are lysed at 4° C. in a buffer composed of 10 mMTris-HCl (pH 8), 1 mM EDTA, 150 mMNaCl, 10% NP40, containing a protease inhibitor cocktail (Pierce, Thermo Scientific). The cell lysate obtained is centrifuged at 4° C. and 15000 g for 10 minutes. The supernatant containing solubilized proteins is collected and the amount of proteins determined using a calibration curve of bovine serum albumin (BSA) prepared from a 1 mg/mL BSA solution diluted in the lysis buffer used during sample preparation.\nThe samples are then used in western blot experiments. To that end, an aliquot containing 30 μg of proteins is taken up in 4× Laemmli buffer containing a reducing agent (Invitrogen) and then heated for 10 minutes at 75° C. before being deposited on an electrophoresis gel (NuPAGE 4-12% Bis-Tris Gel, Invitrogen). After migration of the samples, the proteins are dry-transferred to a nitrocellulose membrane (iBlot 2, Invitrogen). The membrane is blocked for 45 minutes with a Tris buffer containing 0.1% Tween 20 (TBS-T) and 4% BSA. The primary antibody (Table 5) diluted in TBS-T is hybridized for 12 hours at 4° C. and then rinsed for 3×10 minutes with TBS-T. The HRP-coupled secondary antibody (TBS-T) is hybridized for 1 hour. After rinsing, HRP activity is detected using a chemiluminescent substrate (ECL, Pierce). An antibody directed against a normalizing protein (β-tubulin), the expression of which is not modified by the experimental conditions, makes it possible to normalize the quantification and then to express the results semi-quantitatively (% control). Emitted light is captured with a camera (G:BOX). The proteins of interest are visualized as black bands on a white background. The signal thus obtained is quantified by densitometry (Image Lab Software version 4.1) (Table 5).\nThe cells are fixed for 5 minutes in 70° ethanol at 4° C. and then rinsed with PBS. After 1 hour of blocking in a PBS solution containing 5% BSA, the primary antibody (anti-α-SMA, Dako-0851) diluted 1/50 and then the secondary antibody (anti-mouse antibody) coupled to a fluorescent molecule (Alexa Fluor 488) are incubated for 1.5 hours. Rinses with PBS are performed between each step. The cells are mounted in an aqueous medium containing a nuclear stain (ProLongMountant with DAPI, Invitrogen) before being observed under a fluorescence microscope.\nModulation of α-SMA expression was examined in response to stimulation of HCFs by 50 ng/mL of CD146 for 48 hours."}, "[2]": {"tested_on": "human renal fibroblasts", "assay": "α-SMA and vimentin mRNA expression in primary culture of human renal fibroblasts", "conditions": "sCD146 50 ng/ml, versus control without treatment", "experimental": "The effect of sCD146 (50 ng/ml) was examined on primary culture from human fibroblasts. The effect of 500 ng/ml anti-sCD146 mAb administrated either alone (Ac) or with sCD146.\nResults are mean values +/−SE of 3 experiments and expressed as fold change versus control condition without treatment.\nThe effect of anti-sCD146 treatment was observed on the mRNA expression of α-SMA and vimentin in human renal fibroblast in (in vitro) culture."}, "[3]": {"tested_on": "miR21", "assay": "In vitro induction of miR21"}}, "note": "Entries after “also recorded” stand apart in the source; their conditions may differ."}
{"substance": "sCD146: recombinant human soluble form of CD146 corresponding to the shed sCD146, obtained from Biocytex", "values": [{"measurement": "α-SMA network (indirect immunofluorescence)", "setting": "[1]; 50 ng/mL", "value": "establishment of a smooth muscle actin network"}, {"measurement": "CD146 expression", "setting": "[1]; 50 ng/mL of CD146s, first results n=2", "value": 2, "unit": "fold"}, {"measurement": "α-SMA protein expression level (western blot)", "setting": "[1]; 50 ng/mL, 48 hours", "value": 2.5, "unit": "fold"}, {"measurement": "α-SMA RNA expression level (overexpression)", "setting": "[1]; 50 ng/mL, 48 hours, n=4", "value": 2.5, "unit": "fold"}, {"measurement": "TGF-β expression at the RNA level", "setting": "[1]; HCFs stimulated by CD146s, preliminary", "value": "increase in TGF-β expression; also recorded: able to increase TGF-β expression"}, {"measurement": "expression of RNAs encoding fibronectin and type I collagen", "setting": "[1]; semiquantitative RT-PCR, comparable to TGF-β stimulation", "value": "increase in synthesis of fibronectin and of type I collagen"}, {"measurement": "α-SMA and vimentin mRNA expression", "setting": "[2]", "value": "increase in α-SMA and vimentin mRNA expression"}, {"measurement": "miR21 induction", "setting": "[3]", "value": "significantly induces in vitro miR21"}]}
